Measured values reported in US20230057984A1, “NORMALIZATION OF CULTURE OF CORNEAL ENDOTHELIAL CELLS” (KYOTO PREFECTURAL PUBLIC UNIVERSITY CORPORATION, priority 2011, published 2023).

Experiments:
Type in all cases: cell-based
[1] = tested on: Cynomolgus monkey corneal endothelial cells; assay: PCR of Na+/K+-ATPase and ZO-1 mRNA in monkey corneal endothelial cells (Example 3); conditions: monkey CEC treated with SB431542 vs fibroblast phenotype control
Experimental: Method of culturing and the like was conducted in a similar manner as the Comparative Examples. In particular, materials similar to those in Example 2 were used. • SB431542: this was obtained from TOCRIS (catalog number: 1614). • Antibodies to Na^+/K^+-ATPase: those obtained from MILLIPORE (catalog number: 05-369) were used. • Antibodies to ZO-1: mice, those obtained from INVITROGEN (catalog number: 339100) were used; and rabbits, those obtained from ZYMED LABORATORIES (catalog number: 61-7300) were used. • Antibodies to GAPDH: those obtained from ABCAM (catalog number: ab36840) were used. • Immunostaining and the like: cells cultured in a similar manner to Example 2 were fixed and immunostaining was performed on Na^+/K^+-ATPase and ZO-1, followed by taking an image using a fluorescence microscope. • Western blot method: similar to Example 1, a Western blot method was performed on the Na^+/K^+-ATPase, ZO-1, and GAPDH. • Realtime PCR method: in addition, PCR was performed for Na^+/K^+-ATPase, ZO-1, and GAPDH in the following method. The primers were purchased from an oligonucleotide synthesizing company, INVITROGEN, and desalted primer were used. […] Amplified DNA fragments were electrophoresed in a 1.5% agarose gel, and were detected by ethidium bromide staining.

[2] = tested on: Human corneal endothelial cells; assay: ELISA of type 1 collagen in culture supernatant of HCEC; conditions: HCEC with vs without SB431542, n=5, P<0.05
Experimental: Corneal endothelial cells were mechanically exfoliated together with basement membranes from research corneas purchased from the Seattle bank, followed by exfoliating from the basement membranes using collagenase for collection, and then primary culturing. […] The collected human corneal endothelial cells were divided into two, and one group of them was cultured with the base culture medium as a control, and the other group of them was cultured with a base culture medium with SB431542 (TOCRIS, catalog number: 1614) added thereto such that the final concentration would be 1 μmol/L. • Enzyme-linked immunosorbent assay (ELISA): type 1 collagen in a culture supernatant of HCEC was assayed by using a ELISA kits for Collagen Type I Alpha 2 (COL1a2) (Uscn Life Science Inc., Wuhan, China) in accordance with the instruction manual of the manufacturer. Culture supernatants derived from HCEC, cultured together with SB431542 or without SB431542, were used for respective groups (n=5).

[3] = tested on: Human corneal endothelial cells; assay: Culture of human corneal endothelial cells with SB431542, cell form (Example 5); conditions: HCEC, base culture medium with SB431542 1 μmol/L; SB431542-free cells transformed in a fibroblastic manner, multi-layered
Experimental: • Cynomolgus monkey corneal endothelial cells (MCEC; source of supply and culturing method): the MCECs were cultured by the improved-type protocol described previously [Koizumi N, et al. (2007) Invest Ophthalmol Vis Sci 48: 4519-4526], [Li W, et al. (2007) Invest Ophthalmol Vis Sci 48: 614-620]. Briefly speaking, eyeballs of cynomolgus monkeys, which were humanely killed for another purpose, were purchased (Nissei Bilis Co., Ltd., Ohtsu, Japan and Keari Co., Ltd., Wakayama, Japan) (the method is described above). The Descemet's membrane including corneal endothelial cells were exfoliated, and the corneal endothelial cells were mechanically exfoliated together with basement membranes, followed by treatment using dispase or collagenase (ROCHE catalog number: 10 103 586 001) and then primary culture. Typically, treatment was performed using 1 mg/mL collagenase A (Roche Applied Science, Penzberg, Germany) at 37° C. for 2 hours. For the culture medium, DMEM (INVITROGEN catalog number 12320) was used with 10% FBS (BIOWEST, catalog number: S1820-500) and 2 ng/ml basic FGF (INVITROGEN, catalog number: 13256-029) added thereto. […] In addition, after the cells were fixed, immunostaining was performed using ZO-1, Na^+/K^+-ATPase as a function-associated marker, followed by observation through a fluorescence microscope. […]

NC(=O)c1ccc(-c2nc(-c3ccc4c(c3)OCO4)c(-c3ccccn3)[nH]2)cc1 [SB431542]
expression of Na+/K+-ATPase and ZO-1, mRNA level (PCR) [1]: strongly enhanced | secretion of collagen type 1 to the cell supernatant (ELISA) [2]: significantly down-regulated | cell form [3]: a layer of cells with a small difference in size of a polygonal shape
